Patent US10966425B2, “Fungicidal compositions” (SYNGENTA PARTICIPATIONS AG, priority 2016, dated 2021)

Legend:
[1] = system: Pyrenophora teres; assay: Pyrenophora teres / barley / leaf disc preventative (net blotch); format: in vivo; settings: 200 ppm, barley leaf segments cv. Hasso, 5-7 days after application
Protocol: Barley leaf segments cv. Hasso are placed on agar in a multiwell plate (24-well format) and sprayed with the formulated test compound diluted in water. The leaf segments are inoculated with a spore suspension of the fungus 2 days after application. The inoculated leaf segments are incubated at 20° C. and 65% rh under a light regime of 12 h light/12 h darkness in a climate cabinet and the activity of a compound is assessed as disease control compared to untreated when an appropriate level of disease damage appears in untreated check leaf segments (5-7 days after application).

SMILES | melting point | control of Pyrenophora teres [1]
Cc1ccc2c(ncn2C2=NC(C)(C)C(=O)c3ccccc32)c1C [Compound E-25] | 159 to 161 °C | –
Cc1cccc2c1C(=O)C(C)(C)N=C2n1cnc2c(C)cccc21 [Compound E-26] | 96 to 101 °C | –
Cc1c(F)ccc2c1ncn2C1=NC(C)(C)C(=O)c2cc(Cl)ccc21 [Compound E-35] | 133 to 136 °C | –
Cc1cccc2c1C(=O)C(C)(C)N=C2n1cnc2c(C)c(C)ccc21 [Compound E-27] | 145 to 149 °C | –
Cc1cccc2c1ncn2C1=NC(C)(C)Cc2c(Br)cccc21 [Compound E-38] | 52 to 54 °C | –
Cc1ccc2c(ncn2C2=NC3(CC3)C3(CC3)c3ccccc32)c1C [Compound E-58] | 141 to 143 °C | –
Cc1cccc2c1ncn2C1=NC(C)(C)C(C)(C)c2c1ccc(Cl)c2F [Compound E-45] | 147 to 151 °C | –
Cc1cccc2c1ncn2C1=NC(C)(C)C(F)(F)c2ccccc21 | 142 to 149 °C | –
CCc1cccc2c1ncn2C1=NC(C)(C)C(C)(C)c2c(F)cccc21 [Compound E-14] | 87 to 88 °C | –
Cc1ccc2c(ncn2C2=NC(C)(C)Cc3cc(F)ccc32)c1C [Compound E-57] | 143 to 145 °C | –
Cc1cccc2c1ncn2C1=NC2(CCC2)Cc2ccccc21 [Compound E-43] | 132 to 133 °C | –
Cc1cccc2c1ncn2C1=NC(C)(C)C(C)(C)c2ccccc21 [Compound E-16] | – | at least 80%
Cc1cccc2c1ncn2C1=NC(C)(C)C(=O)c2cc(Cl)ccc21 [Compound E-34] | 129 to 133 °C | –
Cc1ccc2c(ncn2C2=NC(C)(C)C(=O)c3cc(Cl)ccc32)c1C [Compound E-36] | 196 to 199 °C | –
Cc1cccc2c1ncn2C1=NC(C)(C)C(=O)c2ccccc21 [Compound E-10] | 123 to 125 °C | –
CC1(C)N=C(n2cnc3c(Cl)cccc32)c2ccc(Cl)cc2C1(F)F [Compound E-37] | 197 to 200 °C | –
Cc1cccc2c1ncn2C1=NC(C)(C)C(C)(C)c2c1ccc(F)c2F [Compound E-46] | 122 to 125 °C | –
COC(=O)c1cccc2c1ncn2C1=NC(C)(C)C(C)(C)c2c(F)cccc21 [Compound E-24] | 178 to 179 °C | –
CC1(C)N=C(n2cnc3cc(Cl)c(Cl)cc32)c2cccc(F)c2C1(C)C [Compound E-39] | 126 to 127 °C | –
CC(C)c1cccc2c1ncn2C1=NC(C)(C)C(C)(C)c2c(F)cccc21 [Compound E-12] | 113 to 114 °C | –
Cc1c(F)ccc2c1ncn2C1=NC(C)(C)C(F)(F)c2ccccc21 [Compound E-32] | 118 to 121 °C | –

Further lines, with some results ahead:

melting point | SMILES | control of Pyrenophora teres [1]
112 to 114 °C | CC1(C)N=C(n2cnc3c(F)c(F)ccc32)c2cccc(F)c2C1(C)C [Compound E-50] | –
102 to 103 °C | Cc1c(Cl)ccc2c1ncn2C1=NC(C)(C)C(C)(C)c2c(F)cccc21 [Compound E-42] | –
177 to 178 °C | CC1(C)N=C(n2cnc3c4c(ccc32)CCC4)c2cccc(F)c2C1(C)C [Compound E-51] | –
122 to 124 °C | Cc1c(Br)ccc2c1ncn2C1=NC(C)(C)C(C)(C)c2c(F)cccc21 [Compound E-41] | –
48 to 49 °C | CC1(C)N=C(n2cnc3c(Br)cccc32)c2cccc(F)c2C1(C)C [Compound E-4] | –
50 to 51 °C | CC1(C)N=C(n2cnc3c(Cl)cccc32)c2cccc(F)c2C1(C)C [Compound E-17] | –
45 to 46 °C | Cc1cccc2c1ncn2C1=NC(C)(C)C(C)(C)c2c(F)cccc21 [Compound E-1] | –
118 to 120 °C | Cc1cccc2c1ncn2C1=NC(C)(C)C(C)(C)c2c(F)cccc21 [X.011] | –
70 to 71 °C | C=Cc1cccc2c1ncn2C1=NC(C)(C)C(C)(C)c2c(F)cccc21 [Compound E-13] | –
